These results are taken from ChEMBL document CHEMBL4602732, “Optimizing Pyrazolopyrimidine Inhibitors of Calcium Dependent Protein Kinase 1 for Treatment of Acute and Chronic Toxoplasmosis” (J Med Chem, 2020).

The subject of one data set is Toxoplasma gondii. Description: Antiparasitic activity against 2F clone of type 1 Toxoplasma gondii RH tachyzoites expressing beta-galactosidase infected in HFF assessed as reduction in parasite growth measured after 72 hrs by chlorophenol Red-beta-D-galactopyranoside substrate based assay. The data set is classed as functional, organism-based.
Data set [1] in a line: Half life in human liver microsomes at 10 uM preincubated for 10 mins followed by NADPH addition by LC-MS/MS analysis. It counts as ADME, Microsome. The note with it: for half-life at 10 µM: liver microsomes; for t1/2: microsomes, 10 µM. (Liver microsomes are vesicles of endoplasmic reticulum, rich in cytochrome P450 enzymes.)
A short description of data set [2]: Half life in mouse liver microsomes at 10 uM preincubated for 10 mins followed by NADPH addition by LC-MS/MS analysis. The data set is classed as ADME, Microsome. The note with it: for t1/2: microsomes, 10 µM; for half-life at 10 µM: liver microsomes.
Data set [3] is described as follows: Inhibition of Toxoplasma gondii full-length wild-type C-terminal His-tagged CDPK1 expressed in Escherichia coli BL21(DE3)V2RpAcYc-LIC+LamP using syntide-2 peptide as substrate incubated for 20 to 40 mins by ELISA. Background: In an ELISA, binding on a coated surface is turned into a signal by an enzyme label.
Data set [4] in a line: Cytotoxicity against HFF monolayers assessed as cell growth measured after 72 hrs by luciferase reporter gene assay relative to control. The data set is classed as cell-based. As to conditions: human, read-out: Activity. A general note: In a reporter assay the amount or activity of a reporter protein is the signal.
Data set [5] can be described thus: Cytotoxicity against human SH-SY5Y cells assessed as cell growth at 20 uM measured after 72 hrs by cellTiter 96 AQueous non-radioactive cell proliferation assay relative to control. It counts as cell-based. The note with it: read-out: Activity.
A short description of data set [6]: Cytotoxicity against human CMEC/D3 cells assessed as cell growth at 20 uM measured after 72 hrs by cellTiter 96 AQueous non-radioactive cell proliferation assay relative to control. It counts as cell-based, hCMEC/D3. As to conditions: read-out: Activity.

pEC50, pIC50: −log10 of the molar value.

Usually pEC50 stands for the negative decadic logarithm of the EC50, by convention in mol/L. In general, half-life refers to the time needed for the level to fall by half in the phase considered. Low readings indicate fast loss, high ones slow loss. In general, pIC50 refers to −log10 of the IC50, conventionally taken in molar units. Low values mean a high IC50, high ones a low IC50. For the molecule `Nc1ncnc2c1c(Oc1cc(C(F)(F)F)ccn1)nn2C1CCC(F)(F)CC1`, the pEC50 with Toxoplasma gondii was 6.85. The half-life at 10 µM in data set [1] was > 2.42 h. Further, the t1/2 in data set [2] came to 0.433 h. Further, the pIC50 in data set [3] is 7.47.

With `Nc1ncnc2c1c(Oc1cccc(C(F)(F)F)c1)nn2[C@H]1C[C@H](O)C1`, the negative logarithm of the EC50 (pEC50) in the data set on Toxoplasma gondii was 6.32. Further, the t1/2 is 1.25 h in data set [1] and 0.367 h in data set [2]. Further, the pIC50 in data set [3] is 7.32.

As for `Nc1ncnc2c1c(Oc1cccc(Cl)c1)nn2[C@H]1C[C@H](F)C1`, the pEC50 in the data set with Toxoplasma gondii is 6.30. Besides, the t1/2 is 0.153 h in data set [1] and 0.065 h in data set [2]. Further, the pIC50 in data set [3] is 7.60.

On to `Nc1ncnc2c1c(Oc1cc(C(F)(F)F)ccn1)nn2[C@H]1CC[C@@H](CO)CC1`, for which the pEC50 in the data set with Toxoplasma gondii was 7.15. Moreover, the values for the t1/2 in data set [1] and in data set [2] were 1.6 h and 0.108 h, respectively. The molecule further had a negative logarithm of the IC50 (pIC50) in data set [3] of 7.82.

`N#Cc1ccnc(Oc2nn([C@H]3C[C@H](O)C3)c3ncnc(N)c23)c1`: in the data set with Toxoplasma gondii, the pEC50 is 6.16. The half-life at 10 µM in data set [1] and in data set [2] was > 2.42 h throughout. In data set [3], this molecule gave a pIC50 of 7.42.

`Nc1ncnc2c1c(Oc1cc(C(F)(F)F)ccn1)nn2[C@H]1CC[C@@H](O)CC1`: the pEC50 in the data set with Toxoplasma gondii is 7.42. Moreover, in data set [1], the half-life at 10 µM was > 2.42 h. Also, the t1/2 in data set [2] is 0.45 h. The molecule also had a pIC50 in data set [3] of 7.72.

For `CC(C)(C)n1nc(Oc2cc(O)ccn2)c2c(N)ncnc21`, the pEC50 in the data set with Toxoplasma gondii was 7.77. Besides, the t1/2 in data set [1] was found to be 1.4 h; in data set [2] it was 0.617 h. In data set [3], this molecule gave a pIC50 of 7.85.

`Nc1ncnc2c1c(Oc1cc(C(F)(F)F)ccn1)nn2[C@@H]1CC[C@H](N)C1`: the pEC50 in the data set on Toxoplasma gondii is 6.87. Further, the half-life at 10 µM in data set [1] was > 2.42 h. Also, the t1/2 in data set [2] is 1.4 h. Moreover, in data set [3], the pIC50 was 7.38.

Regarding `Nc1ncnc2c1c(Oc1cc(C(F)(F)F)ccn1)nn2[C@H]1CC[C@H](O)CC1`, the pEC50 in the data set on Toxoplasma gondii is 7.54. The half-life at 10 µM in data set [1] is > 2.42 h. In data set [2], the t1/2 was 0.55 h. This molecule showed a pIC50 in data set [3] of 7.80.

On to `CO[C@@]12[C@H](COC(N)=O)C3=C(C(=O)C(C)=C(N)C3=O)N1C[C@@H]1N[C@@H]12` [MITOMYCIN], for which the viability at 72 h in data set [4] worked out at 25.8%. For the same molecule, the viability at 72 h, 20 µM came to 0% in data set [5] and 5% in data set [6].

As to `Nc1ncnc2c1c(Oc1cc(O)ccn1)nn2[C@H]1C[C@H](F)C1`, in the data set with Toxoplasma gondii, the pEC50 was 6.69. Besides, the t1/2 was found to be 1.03 h in data set [1] and 0.267 h in data set [2]. In data set [3], this molecule showed a negative-log IC50 (pIC50) of 8.07.

On to `CC(C)(C)n1nc(Oc2cc(C#N)ccn2)c2c(N)ncnc21`, for which, in the data set on Toxoplasma gondii, the pEC50 is 6.95. Further, in data set [1], the half-life at 10 µM is > 2.42 h. Further, the t1/2 in data set [2] came out at 0.767 h. In data set [3], this molecule gave a pIC50 of 7.74.

In the case of `CO[C@H]1CC[C@H](n2nc(Oc3cc(C(F)(F)F)ccn3)c3c(N)ncnc32)CC1`, the pEC50 in the data set on Toxoplasma gondii is 7.21. Moreover, the half-life at 10 µM in data set [1] is > 2.42 h. The t1/2 in data set [2] is 0.217 h. Besides, in data set [3], the pIC50 is 7.42.

For the molecule `Nc1ncnc2c1c(Oc1cc(C(F)(F)F)ccn1)nn2[C@H]1CC[C@H](CO)CC1`, in the data set on Toxoplasma gondii, the negative logarithm of the EC50 (pEC50) is 7.60. Besides, in data set [1], the half-life at 10 µM is > 2.42 h. In addition, in data set [2], the t1/2 is 0.383 h. The molecule further showed a pIC50 in data set [3] of 8.00.

`Nc1ncnc2c1c(Oc1cc(C(F)(F)F)ccn1)nn2[C@H]1C[C@H](F)C1`: in the data set with Toxoplasma gondii, the pEC50 is 6.72. The t1/2 amounted to 2.03 h in data set [1] and 0.883 h in data set [2]. In data set [3], this molecule gave a pIC50 of 8.00.

For `Nc1ncnc2c1c(Oc1cc(C(F)(F)F)ccn1)nn2[C@H]1C[C@H](O)C1`, the pEC50 with Toxoplasma gondii was 7.17. The half-life at 10 µM in data set [1] was > 2.42 h. In addition, the t1/2 in data set [2] stood at 0.85 h. This molecule also gave a pIC50 in data set [3] of 7.60.

With `Nc1ncnc2c1c(Oc1cc(C(F)(F)F)ccn1)nn2C1CCC(O)C1` (centres undefined), the pEC50 in the data set on Toxoplasma gondii is 7.24. For the same molecule, in data set [1], the half-life at 10 µM is > 2.42 h. The same molecule had a t1/2 in data set [2] of 0.3 h. Moreover, in data set [3], the pIC50 is 7.62.

As for `Nc1ncnc2c1c(Oc1cc(O)ccn1)nn2C1CCC(F)(F)CC1`, in the data set on Toxoplasma gondii, the pEC50 is 6.61. In data set [1], the half-life at 10 µM was > 2.42 h. The molecule also displayed a t1/2 in data set [2] of 1.13 h. This molecule also showed a pIC50 in data set [3] of 8.00.

As to `Nc1ncnc2c1c(Oc1cc(Cl)ccn1)nn2C1CCC(F)(F)CC1`, in the data set on Toxoplasma gondii, the pEC50 was 6.92. The half-life at 10 µM in data set [1] is > 2.42 h. For the same molecule, in data set [2], the t1/2 worked out at 0.383 h. In addition, in data set [3], the negative logarithm of the IC50 (pIC50) was 7.46.

Regarding `N#Cc1ccnc(Oc2nn([C@H]3C[C@@H](O)C3)c3ncnc(N)c23)c1`, the pEC50 in the data set on Toxoplasma gondii was 6.02. The half-life at 10 µM in data set [1] and in data set [2] was > 2.42 h throughout. For the same molecule, in data set [3], the pIC50 was 7.74.
